{"source": "PubChem BioAssay (NCI)", "assay_in_all_cases": "DTP human tumour cell line panel, 48 h", "key": {"EKVX NSCLC": {"tested_on": "EKVX NSCLC"}, "MALME-3M melanoma": {"tested_on": "MALME-3M melanoma"}, "CCRF-CEM leukemia": {"tested_on": "CCRF-CEM leukemia"}, "NCI-H522 lung": {"tested_on": "NCI-H522 lung"}, "ACHN renal": {"tested_on": "ACHN renal"}, "IGROV1 ovarian": {"tested_on": "IGROV1 ovarian"}, "NCI-H226 lung": {"tested_on": "NCI-H226 lung"}, "RPMI-8226 leukemia": {"tested_on": "RPMI-8226 leukemia"}, "SK-MEL-5 melanoma": {"tested_on": "SK-MEL-5 melanoma"}, "MDA-MB-231 breast": {"tested_on": "MDA-MB-231 breast"}, "SF-539 CNS": {"tested_on": "SF-539 CNS"}, "U251 CNS": {"tested_on": "U251 CNS"}, "OVCAR-3 ovarian": {"tested_on": "OVCAR-3 ovarian"}, "786-0 renal": {"tested_on": "786-0 renal"}, "MOLT-4 leukemia": {"tested_on": "MOLT-4 leukemia"}, "UO-31 renal": {"tested_on": "UO-31 renal"}, "SW-620 colon": {"tested_on": "SW-620 colon"}, "A549 NSCLC": {"tested_on": "A549 NSCLC"}, "SR leukemia": {"tested_on": "SR leukemia"}, "SK-MEL-28 melanoma": {"tested_on": "SK-MEL-28 melanoma"}, "SNB-19 CNS": {"tested_on": "SNB-19 CNS"}, "LOX IMVI melanoma": {"tested_on": "LOX IMVI melanoma"}, "HCT-116 colon": {"tested_on": "HCT-116 colon"}, "UACC-62 melanoma": {"tested_on": "UACC-62 melanoma"}, "CAKI-1 renal": {"tested_on": "CAKI-1 renal"}, "SF-268 CNS": {"tested_on": "SF-268 CNS"}, "OVCAR-5 ovarian": {"tested_on": "OVCAR-5 ovarian"}}, "note": "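Following 48 hours of exposure in 96-well plates, responses at five concentrations were used to interpolate endpoints linearly. At the GI50, growth is halved. TGI is the concentration that stops growth completely.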", "data": [{"smiles": "O=C(COc1nc2ccccc2nc1-c1ccccc1)Nc1ccc(Cl)cc1", "values": [{"measurement": "GI50", "setting": "EKVX NSCLC", "result": 26.9, "unit": "µM"}, {"measurement": "TGI", "setting": "EKVX NSCLC", "result": "> 100", "unit": "µM"}, {"measurement": "GI50", "setting": "MALME-3M melanoma", "result": 20.9, "unit": "µM"}, {"measurement": "TGI", "setting": "MALME-3M melanoma", "result": 66.3, "unit": "µM"}, {"measurement": "GI50", "setting": "CCRF-CEM leukemia", "result": 17.3, "unit": "µM"}, {"measurement": "TGI", "setting": "CCRF-CEM leukemia", "result": "> 100", "unit": "µM"}, {"measurement": "GI50", "setting": "NCI-H522 lung", "result": 3.5, "unit": "µM"}, {"measurement": "TGI", "setting": "NCI-H522 lung", "result": 28.6, "unit": "µM"}, {"measurement": "GI50", "setting": "ACHN renal", "result": 14.4, "unit": "µM"}, {"measurement": "TGI", "setting": "ACHN renal", "result": 37.9, "unit": "µM"}, {"measurement": "GI50", "setting": "IGROV1 ovarian", "result": 14.3, "unit": "µM"}, {"measurement": "TGI", "setting": "IGROV1 ovarian", "result": 49.4, "unit": "µM"}, {"measurement": "GI50", "setting": "NCI-H226 lung", "result": 10.2, "unit": "µM"}, {"measurement": "TGI", "setting": "NCI-H226 lung", "result": 49.1, "unit": "µM"}, {"measurement": "GI50", "setting": "RPMI-8226 leukemia", "result": 23.1, "unit": "µM"}, {"measurement": "TGI", "setting": "RPMI-8226 leukemia", "result": "> 100", "unit": "µM"}, {"measurement": "GI50", "setting": "SK-MEL-5 melanoma", "result": 4.17, "unit": "µM"}, {"measurement": "TGI", "setting": "SK-MEL-5 melanoma", "result": 19.7, "unit": "µM"}, {"measurement": "GI50", "setting": "MDA-MB-231 breast", "result": 15.1, "unit": "µM"}, {"measurement": "TGI", "setting": "MDA-MB-231 breast", "result": 65, "unit": "µM"}, {"measurement": "GI50", "setting": "SF-539 CNS", "result": 14.5, "unit": "µM"}, {"measurement": "TGI", "setting": "SF-539 CNS", "result": 45.4, "unit": "µM"}, {"measurement": "GI50", "setting": "U251 CNS", "result": 13.2, "unit": "µM"}, {"measurement": "TGI", "setting": "U251 CNS", "result": 56.4, "unit": "µM"}, {"measurement": "GI50", "setting": "OVCAR-3 ovarian", "result": 5.56, "unit": "µM"}, {"measurement": "TGI", "setting": "OVCAR-3 ovarian", "result": 36.9, "unit": "µM"}, {"measurement": "GI50", "setting": "786-0 renal", "result": 14.3, "unit": "µM"}, {"measurement": "TGI", "setting": "786-0 renal", "result": 71.3, "unit": "µM"}, {"measurement": "GI50", "setting": "MOLT-4 leukemia", "result": 12.6, "unit": "µM"}, {"measurement": "TGI", "setting": "MOLT-4 leukemia", "result": "> 100", "unit": "µM"}, {"measurement": "GI50", "setting": "UO-31 renal", "result": 17.1, "unit": "µM"}, {"measurement": "TGI", "setting": "UO-31 renal", "result": "> 100", "unit": "µM"}, {"measurement": "GI50", "setting": "SW-620 colon", "result": 25.7, "unit": "µM"}, {"measurement": "TGI", "setting": "SW-620 colon", "result": "> 100", "unit": "µM"}, {"measurement": "GI50", "setting": "A549 NSCLC", "result": 27.8, "unit": "µM"}, {"measurement": "TGI", "setting": "A549 NSCLC", "result": "> 100", "unit": "µM"}, {"measurement": "GI50", "setting": "SR leukemia", "result": 6.54, "unit": "µM"}, {"measurement": "TGI", "setting": "SR leukemia", "result": "> 100", "unit": "µM"}, {"measurement": "GI50", "setting": "SK-MEL-28 melanoma", "result": 18.7, "unit": "µM"}, {"measurement": "TGI", "setting": "SK-MEL-28 melanoma", "result": "> 100", "unit": "µM"}, {"measurement": "GI50", "setting": "SNB-19 CNS", "result": 21.6, "unit": "µM"}, {"measurement": "TGI", "setting": "SNB-19 CNS", "result": 89.1, "unit": "µM"}, {"measurement": "GI50", "setting": "LOX IMVI melanoma", "result": 15.7, "unit": "µM"}, {"measurement": "TGI", "setting": "LOX IMVI melanoma", "result": 49.2, "unit": "µM"}, {"measurement": "GI50", "setting": "HCT-116 colon", "result": 6.23, "unit": "µM"}, {"measurement": "TGI", "setting": "HCT-116 colon", "result": 27.8, "unit": "µM"}, {"measurement": "GI50", "setting": "UACC-62 melanoma", "result": 12.9, "unit": "µM"}, {"measurement": "TGI", "setting": "UACC-62 melanoma", "result": 67.7, "unit": "µM"}, {"measurement": "GI50", "setting": "CAKI-1 renal", "result": 9.04, "unit": "µM"}, {"measurement": "TGI", "setting": "CAKI-1 renal", "result": "> 100", "unit": "µM"}, {"measurement": "GI50", "setting": "SF-268 CNS", "result": 18.5, "unit": "µM"}, {"measurement": "TGI", "setting": "SF-268 CNS", "result": "> 100", "unit": "µM"}, {"measurement": "GI50", "setting": "OVCAR-5 ovarian", "result": 11, "unit": "µM"}, {"measurement": "TGI", "setting": "OVCAR-5 ovarian", "result": "> 100", "unit": "µM"}]}]}
